# Results as given in patent US6372792B1, “Method for treating anxiety, anxiety disorders and insomnia” (priority 1996, dated 2002).
# Columns and labels:
# Format in all cases: in vivo, human
# [1] = system: chronic severe generalized anxiety disorder with marked insomnia and depression; test: Case History 1: patient treated with gabapentin; details: initiated at a low dose
# Protocol: The patient is a retired patient. […] In their medical history, there is a cervical laminectomy (1988). They report residual pain and weakness in the right arm and right leg and chronic neck pain. They have a history of three months of depression with no treatment (1989) and a history of chronic severe generalized anxiety disorder.
# In December 1994, the patient had been taking a benzodiazepine, clonazepam 2.5 mg/day, for the last five years when their anxiety and depression became much worse. Anxiety was associated with marked insomnia and significant situational stressors (financial and marital). […] Patient is now functional for the first time in many years. Improvement continues as of this day. […] Improvement persists.
# [2] = system: obsessive compulsive disorder (OCD), anxiety, paranoid delusions; test: Case History 5: patient treated with gabapentin
# Text: The patient is a single person who is still studying at University. Their medical history is unremarkable. The patient was first seen by a psychiatrist and followed for obsessive compulsive disorder (OCD) in the United Emirates; the patient tended toward isolativeness. Also, they developed a tic disorder and complained of anxiety.
# In February 1994, the patient developed intense paranoid ideation and became more withdrawn. Over the previous two years, the patient had suffered from paranoid delusions and auditory hallucinations. They stopped taking their neuroleptic medication in mid-December while they were a University student. They were admitted as an inpatient in March 1994. […] The patient was discharged with clozapine and lorazepam. In June, the patient was referred for Follow-Up where an anticonvulsant drug, valproic acid was added to potentiate clozapine, but discontinued in August 1994.
# In February 1995, gabapentin was added to the patient's treatment. […] Currently, the patient takes clozpine 125 mg BID, […], gabapentin 500 mg HS and procyclidine 5 mg BID.
# [3] = system: panic attacks and anxiety disorder; test: Case History 3: patient treated with gabapentin; details: for adverse effect: human, in vivo
# Protocol: A person is a single who is working as a freelance writer. […] They were hospitalized because of severe depression and a suicide attempt by drug overdose. The patient has taken lithium since 1973. They have also had panic attacks since 1978.
# In January 1994, the patient was depressed and valproic acid was initiated with lithium and clonazepam. […] Gabapentin 300 mg BID up to 300 mg TID was initiated in their treatment.
# [4] = system: fast cycling manic depressive illness with anxiety associated with depression; test: Case History 2: patient treated with gabapentin; details: June to December 1992
# Protocol: A person is a retired patient with a family history of bipolar affective illness. The patient has been treated for manic-depressive illness since they experienced their first depressive episode and was hospitalized several times for mania and depression.
# […]), the patient was hospitalized for an episode of acute mania. After that, they were treated with lithium, tryptophan, nicotinamide, clonazepam, Premarin®, Provera® and Overal®. The patient was re-hospitalized for a manic episode […] (1982). They have been treated with various psychotropic drugs, especially: lithium, tryptophan, and clonazepam. Lithium was discontinued in October 1983 until 1985. They were given tryptophan, lecithin and female hormones for control of a severe rapid-cycling bipolar disorder. Fluoxetine, as well as, antiepileptics (carbamazepine and valproic acid) were also added to their treatment.
# Due to the patient's fast cycling manic depressive illness, their medication is regularly adjusted. Since 1991 magnesium was added to their regular medication. […] In April 1993, risperidone was initiated and in March 1994 lithium was discontinued. They are currently treated with risperidone, gabapentin 1800 mg QD (initiated in August 1994), clonazepam and ritanserin was recently added to their treatment in an attempt to improve their mood. They also take magnesium and lecithin.
compound,measurement,setting,value
CNCCC(Oc1ccc(C(F)(F)F)cc1)c1ccccc1 (stereo not drawn) [Fluoxetine],clinical response (anxiety and depression),[1],made the patient worse
"NCC1(CC(=O)O)CCCCC1 [gabapentin, (1-aminomethyl)-1-cyclohexaneacetic acid]",adverse effect,[2]; during the increase of gabapentin,dizziness during the increase of gabapentin but this subsided
same,adverse effect,[3],the patient complained of sedation
OC(CCN1CCCC1)(c1ccccc1)C1CCCCC1 (stereo not drawn) [procyclidine],akathisia,[2]; procyclidine 5 mg BID,they improved with this medication
Cc1nc2n(c(=O)c1CCN1CCC(c3noc4cc(F)ccc34)CC1)CCCC2 [risperidone],"psychotic symptoms (paranoid delusions, auditory hallucinations)","[2]; inpatient, March 1994",did not improve
CN[C@H]1CC[C@@H](c2ccc(Cl)c(Cl)c2)c2ccccc21 [sertraline],clinical response (anxiety and depression),[1],made the patient worse
CCCC(CCC)C(=O)O [valproic acid],adverse effect,[3],they were losing their hair
same,depression,"[3]; initiated with lithium and clonazepam, two weeks later",the patient improved
same,adverse effect,[4],the patient was losing hair
